Test results from PubChem BioAssay (NCI).
Several values for one entry are separate records, joined by “and”; a condition that tells them apart may be missing. Equal entries are not always repeated.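 96-well plates; 48 h exposure; 5 concentrations. Endpoints by linear interpolation between flanking doses. Not reached: highest tested concentration assigned. GI50: concentration for 50% inhibition of growth. At the TGI there is no net growth.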

Tests used:
Assay in all cases: NCI-60 cell line screen, 48 h
[1] = system: COLO 205 colon
[2] = system: U251 CNS
[3] = system: HOP-92 NSCLC
[4] = system: NCI-H460 lung
[5] = system: SF-539 CNS
[6] = system: OVCAR-3 ovarian
[7] = system: LOX IMVI melanoma
[8] = system: OVCAR-4 ovarian
[9] = system: ACHN renal
[10] = system: NCI-H23 lung

Row | SMILES | TGI [1] | TGI [2] | TGI [3] | TGI [4] | TGI [5] | TGI [6] | TGI [7] | TGI [8] | TGI [9] | TGI [10] | GI50 [1] [µM] | GI50 [2] [µM] | GI50 [3] | GI50 [4] | GI50 [5] [µM] | GI50 [6] [µM] | GI50 [7] [µM] | GI50 [8] [µM] | GI50 [9] [µM] | GI50 [10]
1 | C=C1CC(CC(=O)C(C)CC2CC(=C)C(=O)O2)OC1=O (stereo unspecified) | 27.1 µM | > 100 µM | 32.1 µM | > 100 µM | 37.7 µM | 37 µM | 29.2 µM | 30.5 µM | 35.1 µM | 35.8 µM | – | – | – | – | – | – | – | – | – | –
2 | NC(N)=NC(N)=NCc1ccco1 | > 1250 µM | > 1250 µM | – | > 1250 µM | > 1250 µM | > 1250 µM | > 1250 µM | > 1250 µM | > 1250 µM | > 1250 µM | > 1250 | 516 | 116 µM | 866 µM and 766 µM | > 1250 | 847 | 581 | 316 | > 1250 | 869 µM and 661 µM
3 | CC1(C)N=C(N)N=C(N)N1c1ccc(CCC(=O)Nc2cccc(S(=O)(=O)F)c2)cc1 | > 100 µM | > 100 µM | > 100 µM | > 100 µM | > 100 µM | > 100 µM | > 100 µM | > 100 µM | > 100 µM | > 100 µM | 41.1 | 4.98 | > 100 µM | 3.04 µM | 5.65 | 54.1 | 3.54 | > 100 | 52.5 | 7.78 µM
4 | CC(=O)CC(=O)ON(C)C(=O)Cc1ccccc1 | > 100 µM | > 100 µM | > 100 µM | > 100 µM | > 100 µM | > 100 µM | > 100 µM | > 100 µM | > 100 µM | > 100 µM | – | – | – | – | – | – | – | – | – | –
5 | O=C(N/N=C/c1cccc(O)c1)c1ccc(C(F)(F)F)nc1Nc1cccc(C(F)(F)F)c1 | 2.94 µM | 6.65 µM | 4.56 µM | 4.52 µM | 4.03 µM | 4.79 µM | 3.17 µM | 22.8 µM | 6.35 µM | 5.07 µM | 1.44 | 1.74 | 1.29 µM | 1.74 µM | 1.78 | 1.03 | 1.17 | 0.955 | 2.09 | 1.62 µM
6 | Cn1c(=O)c2[nH]cnc2n(C)c1=O.[CH2-]C(Cc1cccc2cc(C(=O)O)c(=O)oc12)OC.[Hg+2].[OH-] (stereo unspecified) | 30.9 µM | 29.8 µM | 29.9 µM | – | 29.8 µM | 32.8 µM | 30.3 µM | 35.8 µM | 29.9 µM | 30.9 µM | 17.1 | 16.3 | 15.6 µM | – | 14.6 | 17.3 | 16 | 17.9 | 16.3 | 16.8 µM
7 | COc1ccc2c(c1)NC(=O)CN2c1nc(C)nc2ccccc12 | 0.0012 µM | > 100 µM | > 100 µM | > 100 µM | 0.00144 µM | 0.000746 µM | > 100 µM | > 100 µM | > 100 µM | > 100 µM | 0.000322 | 0.000437 | 49.5 µM | 0.000397 µM | 0.000298 | 0.000266 | 0.000526 | – | 0.000926 | 0.000458 µM
8 | CC1CCC2[C@@H](C)COC3O[C@]4(C)CCC1C32OO4 (stereo partly specified) | > 100 µM | > 100 µM | > 100 µM | > 100 µM | > 100 µM | > 100 µM | > 100 µM | > 100 µM | > 100 µM | > 100 µM | – | – | – | – | – | – | – | – | – | –
9 | CCOC(=O)C1C(=O)c2cccc(OC)c2C2COC(=O)N12 (stereo unspecified) | > 100 µM | > 100 µM | > 100 µM | > 100 µM | > 100 µM | > 100 µM | > 100 µM | > 100 µM | > 100 µM | > 100 µM | – | – | – | – | – | – | – | – | – | –
10 | CCC12C=CCN3CCC4(C(=C(C(=O)OC)C1)Nc1ccccc14)[C@H]32 (stereo partly specified) | 32.3 µM | – | 87.7 µM | 41.9 µM | 47.5 µM | > 100 µM | 53.4 µM | > 100 µM | > 100 µM | 93.6 µM | – | – | – | – | – | – | – | – | – | –
11 | COc1ccc([Se]c2ccc(OC)cc2)cc1 | > 100 µM | > 100 µM | 98.7 µM | > 100 µM | > 100 µM | > 100 µM | > 100 µM | – | > 100 µM | > 100 µM | – | – | – | – | – | – | – | – | – | –
12 | CCOc1cc[n+](C(=C=[N-])C#N)cc1 | > 100 µM | > 100 µM | > 100 µM | > 100 µM | > 100 µM | > 100 µM | > 100 µM | > 100 µM | – | > 100 µM | – | – | – | – | – | – | – | – | – | –
13 | COC(=O)C(=O)C(C(=O)C(=O)Nc1nc(=S)[nH][nH]1)c1nc2ccc([N+](=O)[O-])cc2[nH]c1=O (stereo unspecified) | – | > 100 µM | > 100 µM | > 100 µM | > 100 µM | > 100 µM | > 100 µM | > 100 µM | > 100 µM | > 100 µM | – | – | – | – | – | – | – | – | – | –
14 | NC(=S)N=Nc1c(O)[nH]c2ccccc12 | > 1000 µM | 404 µM | 224 µM | > 1000 µM | 361 µM | 322 µM | > 1000 µM | > 1000 µM | 394 µM | – | – | 188 | 64.8 µM and 106 µM | 185 µM | 170 | 139 | 226 | 239 | 141 | –
15 | CCC(=O)OCN1C(=O)C=CC1=O | 3.56 µM and 11.3 µM | 31.1 µM and 31.6 µM | 16.7 µM and 31.6 µM | 44.2 µM and 33.7 µM | 36.8 µM and 33.8 µM | 25.7 µM and 18.6 µM | 34.3 µM and 35.1 µM | 39.5 µM and 34.5 µM | 28.5 µM and 19.7 µM | 39.6 µM and 34.7 µM | 1.84 | – | 2.65 µM | 21.3 µM | 20.5 | 12.9 | – | 21.2 | 15.1 | 20.1 µM
16 | CCc1cccc(CC)c1NC(=O)C1=CNC(C)=C(C(=O)Nc2c(CC)cccc2CC)C1c1ccc(O)c(OC)c1 (stereo unspecified) | > 100 µM | > 100 µM | > 100 µM | 98.8 µM | 51.3 µM | 53.9 µM | > 100 µM | 91.4 µM | > 100 µM | > 100 µM | – | – | – | – | – | – | – | – | – | –
17 | CC(C)CC1NC(=O)C(C(C)C)NC(=O)CC(C)COC(=O)C(CC(C)C)N(C)C(=O)C(C(C)C)NC(=O)C(C(C)C)OC1=O (stereo unspecified) | > 50 µM | > 50 µM | > 50 µM | > 50 µM | 27.5 µM | > 50 µM | > 50 µM | – | > 50 µM | > 50 µM | – | – | – | – | – | – | – | – | – | –
